Test results reported in patent publication US12371454B2, “Cyclic peptide compound having Kras inhibitory action” (priority 2019, dated 2025).
Positions of bridges follow the written chain, without caps; N, C: chain ends. Non-standard residues stand in square brackets, D forms with d. Residues, ends and D or L forms follow the SMILES beside them. *: point of attachment. hPhe(3-Cl-4-CF3) = N[C@@H](CCc1ccc(C(F)(F)F)c(Cl)c1)C(=O)O; hPhe(3-F,4-CF3) = N[C@@H](CCc1ccc(C(F)(F)F)c(F)c1)C(=O)O; NMePhe(4-CF3) = CN[C@@H](Cc1ccc(C(F)(F)F)cc1)C(=O)O; 3Oxa8azabicyclo(3.2.1)octane = C1CC2COCC1N2*; NMeAla(cPent) = CN[C@@H](CC1CCCC1)C(=O)O; NMeGly(cPent) = CN[C@H](C(=O)O)C1CCCC1; NMeCha = CN[C@@H](CC1CCCCC1)C(=O)O; NMehLeu = CN[C@@H](CCC(C)C)C(=O)O; NEtLeu = CCN[C@@H](CC(C)C)C(=O)O; NMeChg = CN[C@H](C(=O)O)C1CCCCC1; NMeI = CC[C@H](C)[C@H](NC)C(=O)O; NMeD = CN[C@@H](CC(=O)O)C(=O)O; NMeL = CN[C@@H](CC(C)C)C(=O)O; NMeS = CN[C@@H](CO)C(=O)O; Morpholide = C1CN(*)CCO1; NMeA = CN[C@@H](C)C(=O)O; Piperidide = C1CCN(*)CC1; Pyrrolidide = C1CCN(*)C1; Thz = O=C(O)[C@@H]1CSCN1; Ac5c = NC1(C(=O)O)CCCC1; Aze = O=C(O)[C@@H]1CCN1; NEtG = CCNCC(=O)O; Sar = CNCC(=O)O; Propyl = CCC*

The compounds below were run on Human pancreatic cancer cell line AsPC-1 (assay: Measurement of AsPC-1 cell growth inhibition (AsPC-1 CGI)). Conditions: 96 h.
Format: cell-based
Method in brief: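 AsPC-1 cells in 15% FBS RPMI-1640 were exposed to test compound for 96 hours at 37° C, with CellTiter-Glo as endpoint.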

CC[C@H](C)[C@@H]1NC(=O)[C@H](CC(C)C)N(C)C(=O)C[C@@H](C(=O)N2CCCCC2)N(C)C(=O)[C@H](C2CCCCC2)N(C)C(=O)C2(CCCC2)NC(=O)[C@@H]2CSCN2C(=O)[C@H](CCc2ccc(C(F)(F)F)c(Cl)c2)NC(=O)CN(C)C(=O)[C@H](CC2CCCCC2)N(C)C(=O)CN(C)C(=O)CN(C)C1=O [Compound 1093] ([NMeL]I[Sar][Sar][NMeCha][Sar][hPhe(3-Cl-4-CF3)][Thz][Ac5c][NMeChg][NMeD]-Piperidide; lactam N-11) and CC[C@H](C)[C@@H]1NC(=O)[C@H](CC(C)C)N(C)C(=O)C[C@@H](C(=O)N2CCOCC2)N(C)C(=O)[C@H](C2CCCC2)N(C)C(=O)C2(CCCC2)NC(=O)[C@@H]2CCCN2C(=O)[C@H](CCc2ccc(C(F)(F)F)c(Cl)c2)NC(=O)CN(C)C(=O)[C@H](CC2CCCCC2)N(C)C(=O)[C@@H]2CCN2C(=O)[C@H](C)NC1=O [Compound 1137] ([NMeL]IA[Aze][NMeCha][Sar][hPhe(3-Cl-4-CF3)]P[Ac5c][NMeGly(cPent)][NMeD]-Morpholide; lactam N-11) fall in the same range of IC50: 0.02 to 0.05 µM for the first, 0.02 to 0.05 µM for the second.

First: CC[C@H](C)[C@@H]1NC(=O)[C@H](CC(C)C)N(CC)C(=O)C[C@@H](C(=O)N2CCOCC2)N(C)C(=O)[C@H](C2CCCC2)N(C)C(=O)C2(CCCC2)NC(=O)[C@@H]2CCCN2C(=O)[C@H](CCc2ccc(C(F)(F)F)c(Cl)c2)NC(=O)CN(C)C(=O)[C@H](C2CCCC2)N(C)C(=O)[C@@H]2CCN2C(=O)[C@H](C)NC1=O [Compound 1140] ([NEtLeu]IA[Aze][NMeGly(cPent)][Sar][hPhe(3-Cl-4-CF3)]P[Ac5c][NMeGly(cPent)][NMeD]-Morpholide; lactam N-11)
Second: CC[C@H](C)[C@@H]1NC(=O)[C@H](CC(C)C)N(C)C(=O)C[C@@H](C(=O)N2CCOCC2)N(C)C(=O)[C@H](C2CCCC2)N(C)C(=O)C2(CCCC2)NC(=O)[C@@H]2CCCN2C(=O)[C@H](CCc2ccc(C(F)(F)F)c(Cl)c2)NC(=O)CN(CC)C(=O)[C@H](C2CCCC2)N(C)C(=O)[C@@H]2CCN2C(=O)[C@H](C)N(C)C1=O [Compound 1142] ([NMeL]I[NMeA][Aze][NMeGly(cPent)][NEtG][hPhe(3-Cl-4-CF3)]P[Ac5c][NMeGly(cPent)][NMeD]-Morpholide; lactam N-11)
The IC50 of the first is higher: 0.1 to 0.5 µM for the first, 0.02 to 0.05 µM for the second.

Compared with CC[C@H](C)[C@@H]1NC(=O)[C@H](CC2CCCC2)N(C)C(=O)C[C@@H](C(=O)N2CCOCC2)N(C)C(=O)[C@H](C2CCCC2)N(C)C(=O)C2(CCCC2)NC(=O)[C@@H]2CCCN2C(=O)[C@H](CCc2ccc(C(F)(F)F)c(Cl)c2)NC(=O)CN(C)C(=O)[C@H](C2CCCC2)N(C)C(=O)[C@@H]2CCN2C(=O)[C@H](C)NC1=O [Compound 1145] ([NMeAla(cPent)]IA[Aze][NMeGly(cPent)][Sar][hPhe(3-Cl-4-CF3)]P[Ac5c][NMeGly(cPent)][NMeD]-Morpholide; lactam N-11), CC[C@H](C)[C@@H]1NC(=O)[C@H](CC(C)C)N(C)C(=O)C[C@@H](C(=O)N(C)C)N(C)C(=O)[C@H](C2CCCC2)N(C)C(=O)C2(CCCC2)NC(=O)[C@@H]2CCCN2C(=O)[C@H](CCc2ccc(C(F)(F)F)c(F)c2)NC(=O)CN(C)C(=O)[C@H](CC2CCCCC2)N(C)C(=O)[C@@H]2CCN2C(=O)[C@H](C)NC1=O [Compound 1164] ([NMeL]IA[Aze][NMeCha][Sar][hPhe(3-F,4-CF3)]P[Ac5c][NMeGly(cPent)][NMeD]-NMe2; lactam N-11) is lower in IC50: 0.1 to 0.5 µM for the first, 0.02 to 0.05 µM for the second.

CC[C@H](C)[C@@H]1NC(=O)[C@H](CC(C)C)N(CC)C(=O)C[C@@H](C(=O)N2CCCC2)N(C)C(=O)[C@H]([C@@H](C)CC)N(C)C(=O)C2(CCCC2)NC(=O)[C@@H]2CCCN2C(=O)[C@H](CCc2ccc(C(F)(F)F)c(Cl)c2)NC(=O)CN(C)C(=O)[C@H](Cc2ccc(C(F)(F)F)cc2)N(C)C(=O)[C@@H]2CCN2C(=O)[C@H](C)NC1=O [Compound 1146] ([NEtLeu]IA[Aze][NMePhe(4-CF3)][Sar][hPhe(3-Cl-4-CF3)]P[Ac5c][NMeI][NMeD]-Pyrrolidide; lactam N-11) and CC[C@H](C)[C@@H]1NC(=O)[C@H](CC(C)C)N(C)C(=O)C[C@@H](C(=O)N2CCCC2)N(C)C(=O)[C@H]([C@@H](C)CC)N(C)C(=O)C2(CCCC2)NC(=O)[C@@H]2CCCN2C(=O)[C@H](CCc2ccc(C(F)(F)F)c(Cl)c2)NC(=O)CN(CC)C(=O)[C@H](Cc2ccc(C(F)(F)F)cc2)N(C)C(=O)[C@@H]2CCN2C(=O)[C@H](C)N(C)C1=O [Compound 1159] ([NMeL]I[NMeA][Aze][NMePhe(4-CF3)][NEtG][hPhe(3-Cl-4-CF3)]P[Ac5c][NMeI][NMeD]-Pyrrolidide; lactam N-11) fall in the same range of IC50: 0.02 to 0.05 µM for the first, 0.02 to 0.05 µM for the second.

With CCCOC[C@H]1C(=O)N(C)CC(=O)N[C@@H](CCc2ccc(C(F)(F)F)c(Cl)c2)C(=O)N2CCC[C@H]2C(=O)NC2(CCCC2)C(=O)N(C)[C@@H](C2CCCC2)C(=O)N(C)[C@H](C(=O)N2C3CCC2COC3)CC(=O)N(C)[C@@H](CCC(C)C)C(=O)N[C@@H]([C@@H](C)CC)C(=O)N(C)[C@@H](C)C(=O)N2CC[C@H]2C(=O)N1C [Compound 1154] ([NMehLeu]I[NMeA][Aze][NMeS](Propyl)[Sar][hPhe(3-Cl-4-CF3)]P[Ac5c][NMeGly(cPent)][NMeD]-{3Oxa8azabicyclo(3.2.1)octane}; lactam N-11) the IC50 was 0.02 to 0.05 µM.
